Laboratory results published in US7776819B2, “Targeted drug delivery of pain and addiction therapies using opioid receptor-mediated internalization” (The Board of Trustees of the University of Illinois, priority 2005, dated 2010).
Where a SMILES comes first, the peptide text is derived from it.

Biological target: T1, human mu opioid receptors (hMOR) (Homo sapiens, UniProt P35372)
T1 construct: expressed in transfected cells; host or cells: CHO cells, stably transfected (G418 selection); membrane preparation
Experiment: [3H]DAMGO displacement receptor binding assay, CHO-hMOR membranes
Method: Receptor membranes were prepared from CHO cells transfected with opioid mu receptors. Binding was performed at 30° C. in 50 mM pH 7.4 tris HCl buffer for 1 h for CHO-MOR (100 μg protein/reaction, 1 nM 3H-DAMGO). Reactions were terminated by vacuum filtration through GF/B filters pretreated with 0.2% polyethylenimine. These were then washed twice with ice-cold PBS. Filter-bound radioactivity was determined by liquid scintillation counting. Nonspecific binding was determined in the presence of 20 μM DAMGO.
Briefly, membranes were prepared from CHO-hMOR cells by Polytron homogenization at setting 6 for 2 min on ice, followed by centrifugation at 20,000 g for 30 min at 4° C. Protein content was determined by the Coomassie protein assay method (Pierce Biotechnology, Rockford, Ill.) and bovine serum albumin as the standard. MOR receptor binding was conducted in triplicate with 1 nM [^3H]DAMGO in 50 mM Tris HCl buffer (pH 7.4) at 30° C. for 1 h (50 μg protein/reaction). Nonspecific binding was determined in the presence of 20 μM unlabelled DAMGO. Reactions were terminated by rapid vacuum filtration through GF/B filters presoaked with 0.2% polyethylenimine. Filter-bound radioactivity was determined by liquid scintillation counting (Beckman Coulter Inc., Fullerton, Calif.). Binding data representing the mean ±SD were analyzed using Prism program (GraphPad Software, San Diego, Calif.).

T1 sequence (P35372 whole entry): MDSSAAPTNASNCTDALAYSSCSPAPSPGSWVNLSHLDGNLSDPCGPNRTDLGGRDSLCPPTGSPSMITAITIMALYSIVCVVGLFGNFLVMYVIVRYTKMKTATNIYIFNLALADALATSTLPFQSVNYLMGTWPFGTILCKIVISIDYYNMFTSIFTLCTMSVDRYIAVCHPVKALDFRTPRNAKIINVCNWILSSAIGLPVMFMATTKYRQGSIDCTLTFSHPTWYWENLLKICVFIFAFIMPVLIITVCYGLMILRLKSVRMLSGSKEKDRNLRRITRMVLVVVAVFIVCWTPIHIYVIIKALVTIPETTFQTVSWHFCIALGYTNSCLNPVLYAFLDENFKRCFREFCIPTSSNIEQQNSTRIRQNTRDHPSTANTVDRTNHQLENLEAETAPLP

## C[C@@H](NC(=O)[C@@H](N)Cc1ccc(O)cc1)C(=O)N[C@@H](Cc1ccccc1)C(=O)NCC(=O)N[C@@H](Cc1ccc(O)cc1)C(=O)N1CCC[C@H]1C(=O)N[C@@H](CO)C(=O)N[C@@H](CS)C(=O)O [c-p-dermorphin] (HELM PEPTIDE1{Y.[dA].F.G.Y.P.S.C}$$$$V2.0)
  IC50: 25.3 nM
